In ChEMBL document CHEMBL4346665, “Synthesis and evaluation of tetrahydroquinolin-2(1H)-one derivatives as novel anti-pancreatic cancer agents via targeting autophagy” (Eur J Med Chem, 2019):

Experiments:
Conditions in all cases: PANC-1, 24 h
PANC-1 [1] = experiment: Growth inhibition of human PANC1 cells in nutrient-rich medium at 10 uM incubated for 24 hrs by MTT assay (reference value: 0.0 +/- 3.8%); type: functional
PANC-1 [2] = experiment: Growth inhibition of human PANC1 cells in nutrient-deprived medium incubated for 24 hrs by MTT assay; type: functional, cell-based
PANC-1 [3] = experiment: Growth inhibition of human PANC1 cells in nutrient-deprived medium at 10 uM incubated for 24 hrs by MTT assay (reference value: 0.0 +/- 1.9%); type: functional

| IC50 (PANC-1 [2]) | SMILES | inhibition at 10 µM (PANC-1 [1]) | inhibition at 10 µM (PANC-1 [3]) |
| --- | --- | --- | --- |
| 7.3 µM | CC(C)=CCC1Cc2c(OC(=O)Nc3ccc(F)c(F)c3)cc(=O)n(CCCO)c2CC1(C)C (stereo unspecified) | 0% | 76.7% |
| – | CC(C)=CCC1Cc2c(OC(=O)Nc3ccc(F)cc3F)cc(=O)n(CCCO)c2CC1(C)C (stereo unspecified) | 0% | 69.7% |
| – | CC(C)=CCC/C(C)=C/CC1Cc2c(OCCCNS(=O)(=O)c3ccc([N+](=O)[O-])cc3)cc(=O)n(CCCO)c2CC1(C)C (stereo unspecified) | 0% | 7.4% |
| – | CC(C)=CCC1Cc2c(OC(=O)Nc3ccc(Cl)c(Cl)c3)cc(=O)n(CCCO)c2CC1(C)C (stereo unspecified) | 1.8% | 61.4% |
| – | CC(C)=CCC1Cc2c(OC(=O)Nc3ccccc3F)cc(=O)n(CCCO)c2CC1(C)C (stereo unspecified) | 0% | 52.3% |
| – | CC(C)=CCC1Cc2c(OC(=O)Nc3cccc(F)c3)cc(=O)n(CCCO)c2CC1(C)C (stereo unspecified) | 0% | 66.1% |
| – | CC(C)=CCC/C(C)=C/CC1Cc2c(OCCCNC(=O)c3ccc([N+](=O)[O-])cc3)cc(=O)n(CCCO)c2CC1(C)C (stereo unspecified) | 6.5% | 16.8% |
| – | COc1cccc(NC(=O)Oc2cc(=O)n(CCCO)c3c2CC(C/C=C(\C)CCC=C(C)C)C(C)(C)C3)c1 (stereo unspecified) | 11.3% | 47% |
| – | CC(C)=CCC/C(C)=C/CC1Cc2c(OCc3ccccc3)cc(=O)n(CCCO)c2CC1(C)C (stereo unspecified) | 1.5% | 46.5% |
| – | CC(C)=CCC/C(C)=C/CC1Cc2c(OC(=O)Nc3cccc(C(F)(F)F)c3)cc(=O)n(CCCO)c2CC1(C)C (stereo unspecified) | 6.7% | 44% |
| – | COc1ccc(C(=O)NCCCOc2cc(=O)n(CCCO)c3c2CC(CC=C(C)C)C(C)(C)C3)cc1 (stereo unspecified) | 2.5% | 55.5% |
| – | CC(C)=CCC1Cc2c(OCCCOc3ccc(Cl)cc3)cc(=O)n(CCCO)c2CC1(C)C (stereo unspecified) | 0% | 22.7% |
| 7.3 µM | CCOc1cc(=O)n(CCCO)c2c1CC(CC=C(C)C)C(C)(C)C2 (stereo unspecified) | 16.6% | 66.5% |
| – | CC(C)=CCC/C(C)=C/CC1Cc2c(OC(=O)Nc3ccc(F)c(Cl)c3)cc(=O)n(CCCO)c2CC1(C)C (stereo unspecified) | 0% | 25% |
| – | COc1ccccc1NC(=O)Oc1cc(=O)n(CCCO)c2c1CC(C/C=C(\C)CCC=C(C)C)C(C)(C)C2 (stereo unspecified) | 0% | 53% |
| – | CC(C)=CCC1Cc2c(OCCCNS(=O)(=O)c3ccc([N+](=O)[O-])cc3)cc(=O)n(CCCO)c2CC1(C)C (stereo unspecified) | 17.3% | 47.7% |
| – | CC(C)=CCC1Cc2c(O)cc(=O)n(CCCO)c2CC1(C)C (stereo unspecified) | 0% | 25.6% |
| – | CC(C)=CCC/C(C)=C/CC1Cc2c(OCC=C(C)C)cc(=O)n(CCCO)c2CC1(C)C (stereo unspecified) | 15.9% | 30.3% |
| – | CC(C)=CCC1Cc2c(OC(=O)Nc3cccc(C(F)(F)F)c3)cc(=O)n(CCCO)c2CC1(C)C (stereo unspecified) | 0% | 54.3% |
| – | CC(C)=CCC/C(C)=C/CC1Cc2c(OC(=O)Nc3ccc(F)cc3)cc(=O)n(CCCO)c2CC1(C)C (stereo unspecified) | 6.2% | 43.9% |
| – | CC(C)=CCC1Cc2c(OCCCNC(=O)c3ccco3)cc(=O)n(CCCO)c2CC1(C)C (stereo unspecified) | 4.3% | 2.1% |
| – | CC(C)=CCC1Cc2c(OCCCNC(=O)c3ccc([N+](=O)[O-])cc3)cc(=O)n(CCCO)c2CC1(C)C (stereo unspecified) | 9.1% | 49.9% |
| – | CC(C)=CCC/C(C)=C/CC1Cc2c(OCCCNS(=O)(=O)c3ccc(C(F)(F)F)cc3)cc(=O)n(CCCO)c2CC1(C)C (stereo unspecified) | 0% | 26.4% |
| – | CC(C)=CCC1Cc2c(OCCCNS(=O)(=O)c3ccc(Br)cc3)cc(=O)n(CCCO)c2CC1(C)C (stereo unspecified) | 3.7% | 19.5% |

| IC50 (PANC-1 [2]) | SMILES | inhibition at 10 µM (PANC-1 [1]) | inhibition at 10 µM (PANC-1 [3]) |
| --- | --- | --- | --- |
| – | COc1cccc(NC(=O)Oc2cc(=O)n(CCCO)c3c2CC(CC=C(C)C)C(C)(C)C3)c1 (stereo unspecified) | 0% | 16.2% |
| – | CC(C)=CCC/C(C)=C/CC1Cc2c(OC(=O)Nc3ccc(Cl)c(Cl)c3)cc(=O)n(CCCO)c2CC1(C)C (stereo unspecified) | 0% | 20% |
| – | CC(C)=CCC/C(C)=C/CC1Cc2c(OC(=O)Nc3cccc(F)c3)cc(=O)n(CCCO)c2CC1(C)C (stereo unspecified) | 0% | 52.3% |
| – | CC(C)=CCOc1cc(=O)n(CCCO)c2c1CC(CC=C(C)C)C(C)(C)C2 (stereo unspecified) | 7.5% | 20.7% |
| – | CC(C)=CCC/C(C)=C/CC1Cc2c(OC(=O)Nc3ccc(Cl)cc3)cc(=O)n(CCCO)c2CC1(C)C (stereo unspecified) | 4.3% | 47.2% |
| – | CC(C)=CCC1Cc2c(OCCCNS(=O)(=O)c3ccc(Cl)cc3)cc(=O)n(CCCO)c2CC1(C)C (stereo unspecified) | 9.8% | 24.7% |
| – | CC(C)=CCC1Cc2c(OCCCNC(=O)c3cccs3)cc(=O)n(CCCO)c2CC1(C)C (stereo unspecified) | 5.6% | 33.6% |
| – | CC(C)=CCC1Cc2c(OCCCNS(=O)(=O)c3ccc(C(F)(F)F)cc3)cc(=O)n(CCCO)c2CC1(C)C (stereo unspecified) | 0% | 29.6% |
| – | CC(C)=CCC/C(C)=C/CC1Cc2c(OCCCNS(=O)(=O)c3ccc(Cl)cc3)cc(=O)n(CCCO)c2CC1(C)C (stereo unspecified) | 16.1% | 14.5% |
| – | COc1ccc(OCCCOc2cc(=O)n(CCCO)c3c2CC(CC=C(C)C)C(C)(C)C3)cc1 (stereo unspecified) | 4.1% | 47.7% |
| – | COc1ccc(OCCCOc2cc(=O)n(CCCO)c3c2CC(C/C=C(\C)CCC=C(C)C)C(C)(C)C3)cc1 (stereo unspecified) | 0% | 20% |
| – | COc1ccc(C(=O)NCCCOc2cc(=O)n(CCCO)c3c2CC(C/C=C(\C)CCC=C(C)C)C(C)(C)C3)cc1 (stereo unspecified) | 14.1% | 45.7% |
| – | CC(C)=CCC/C(C)=C/CC1Cc2c(O)cc(=O)n(CCCO)c2CC1(C)C (stereo unspecified) | 0% | 28.7% |
| – | CC(C)=CCC/C(C)=C/CC1Cc2c(OCCCOc3ccc(Cl)cc3)cc(=O)n(CCCO)c2CC1(C)C (stereo unspecified) | 0% | 25.2% |
| – | CC(C)=CCC1Cc2c(OCc3ccccc3)cc(=O)n(CCCO)c2CC1(C)C (stereo unspecified) | 11.1% | -0.3% |
| – | CC(C)=CCC1Cc2c(OC(=O)Nc3ccc(Cl)cc3)cc(=O)n(CCCO)c2CC1(C)C (stereo unspecified) | 0% | 49.8% |
| – | COc1ccc(NC(=O)Oc2cc(=O)n(CCCO)c3c2CC(CC=C(C)C)C(C)(C)C3)cc1 (stereo unspecified) | 0% | 3.7% |
| – | CC(C)=CCC1Cc2c(OCCCOc3ccc([N+](=O)[O-])cc3)cc(=O)n(CCCO)c2CC1(C)C (stereo unspecified) | 0% | 47.5% |
| – | CC(C)=CCC/C(C)=C/CC1Cc2c(OC(=O)Nc3ccc(F)c(F)c3)cc(=O)n(CCCO)c2CC1(C)C (stereo unspecified) | 4.8% | 43.7% |
| – | CC(C)=CCC/C(C)=C/CC1Cc2c(OC(=O)Nc3ccc(F)cc3F)cc(=O)n(CCCO)c2CC1(C)C (stereo unspecified) | 15.6% | 33.7% |
| – | CC(C)=CCC/C(C)=C/COc1cc(=O)n(CCCO)c2c1CC(C/C=C(\C)CCC=C(C)C)C(C)(C)C2 (stereo unspecified) | 3.1% | 15.8% |
| – | CC(C)=CCC/C(C)=C/COc1cc(=O)n(CCCO)c2c1CC(CC=C(C)C)C(C)(C)C2 (stereo unspecified) | 18.4% | 10.6% |
| – | CC(C)=CCC/C(C)=C/CC1Cc2c(OCCCNS(=O)(=O)c3ccc(Br)cc3)cc(=O)n(CCCO)c2CC1(C)C (stereo unspecified) | 0% | 15.2% |
